pIC50: −log10 of the molar value. Where two headings read alike, the source gives them in different places.
System: human primary T-cells, IL-2 stimulated proliferation (JAK-1 and JAK-3 dependent; reported as JAK3 activity)
Experiment: Human primary T-cell proliferation stimulated by IL-2 (Example 3)
Type: cell-based
Conditions: tested under conditions described in Example 3 (IL-2 stimulated human primary T-cell proliferation), read-out: ability to inhibit JAK3 activity, IC50 range (Table V)
In short: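 Peripheral-blood human T-cells pre-activated via TCR/CD28, IL-2-starved overnight, then cultured 72 h at 37 °C with compound in Yssel's medium containing IL-2 (80 U/mL in cell suspension). Proliferation read as viable-cell ATP by CellTiter-Glo luminescence; reduction versus control taken as JAK pathway inhibition.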

Structure (SMILES) | pIC50 | pIC50 (Homo sapiens, T-cell)
COc1ccc(Nc2ncc(C)c(Nc3ccc4oc(=O)[nH]c4c3)n2)cc1OCCN(C)C [Compound I-300, N2-{4-methoxy-3-[2-(dimethylamino)ethoxy]}phenyl-5-methyl-N4-(2-oxo-2,3-dihydro-1,3-benzoxazol-5-yl)-2,4-pyrimidinediamine] | > 6.30 | 
Cc1cnc(Nc2cnc(N3CC4CC3CN4C(=O)OC(C)(C)C)c(F)c2)nc1Nc1ccc2oc(=O)[nH]c2c1 (centres unmarked) [II-49, 5-{3-Fluoro-5-[5-methyl-4-(2-oxo-2,3-dihydro-benzooxazol-5-ylamino)-pyrimidin-2-ylamino]-pyridin-2-yl}-2,5-diaza-bicyclo[2.2.1]heptane-2-carboxylic acid tert-butyl ester] |  | > 6.30
Cc1cnc(Nc2ccc(F)c(S(C)(=O)=O)c2)nc1Nc1cc(C)c2oc(=O)[nH]c2c1 [Compound I-245, 5-(2-(4-fluoro-3-(methylsulfonyl)phenylamino)-5-methylpyrimidin-4-ylamino)-7-methylbenzo[d]oxazol-2(3H)-one] |  | > 6.30
N#Cc1cccc(Nc2ncc(F)c(Nc3ccc4oc(=O)[nH]c4c3)n2)c1 [Compound I-44, N4-(benzo[d]oxazol-2(3H)-on-5-yl)-N2-(3-cyanophenyl)-5-fluoropyrimidine-2,4-diamine] |  | > 6.30
Cc1cnc(Nc2ccc(N3CC4(C)CN(C)CC(C)(C3)C4)c(F)c2)nc1Nc1ccc2oc(=O)[nH]c2c1 [Compound I-6, N4-(benzo[d]oxazol-2(3H)-on-5-yl)-N2-(3-fluoro-4-(1,5,7-trimethyl-3,7-diazabicyclo[3.3.1]nonan-3-yl)phenyl)-5-methylpyrimidine-2,4-diamine] |  | > 6.30
Cc1cnc(Nc2ccc(N(C)C)nc2)nc1Nc1ccc2oc(=O)[nH]c2c1 [II-1, N4-(benzo[d]oxazol-2(3H)-on-5-yl)-N2-(6-dimethylaminopyridin-3-yl)-5-methylpyrimidine-2,4-diamine] |  | > 6.30
Cc1cnc(Nc2cccc(S(C)(=O)=O)c2)nc1Nc1ccc2c(c1)n(C)c(=O)n2C [Compound I-36, N4-(1,3-dimethylbenzimidazolin-2-on-5-yl)-N2-((3-methylsulfonyl)phenyl)-5-methylpyrimidine-2,4-diamine] | > 6.30 | 
Cc1cnc(Nc2cccc(C#N)c2)nc1Nc1ccc2[nH]c(=O)[nH]c2c1 [Compound I-28, N4-(benzimidazolin-2-on-5-yl)-N2-(3-cyanophenyl)-5-methylpyrimidine-2,4-diamine] | > 6.30 | 
Cc1cnc(Nc2cc(C)c(F)c(C)c2)nc1Nc1cc(C)c2oc(=O)[nH]c2c1 [Compound I-476, 5-(2-(4-fluoro-3,5-dimethylphenylamino)-5-methylpyrimidin-4-ylamino)-7-methylbenzo[d]oxazol-2(3H)-one] |  | < 5.00
Cc1cnc(Nc2c(C)cccc2C)nc1Nc1ccc2oc(=O)[nH]c2c1 [IV-60, 5-(2-(2,6-dimethylphenylamino)-5-methylpyrimidin-4-ylamino)benzo[d]oxazol-2(3H)-one] |  | 5.00 to 5.30
Cc1cnc(Nc2ccc(N3CCN(C)CC3)nc2)nc1Nc1ccc2oc(=O)[nH]c2c1 [II-13, N4-(benzoxazolin-2-on-5-yl)-N2-[2-(4-methylpiperazin-1-yl)pyridin-5-yl]-5-methylpyrimidine-2,4-diamine] |  | > 6.30
Cc1cnc(Nc2cccc(NS(C)(=O)=O)c2)nc1Nc1ccc2[nH]c(=O)oc2c1 [Compound I-102, N2-((3-methylsulfonylamino)phenyl)-N4-(2-oxo-2,3-dihydrobenzo[d]oxazol-6-yl)-5-methylpyrimidine-2,4-diamine] | > 6.30 | 
COc1cc(Nc2ncc(F)c(Nc3ccc4oc(=O)[nH]c4c3)n2)cc(OC)c1OC [Compound I-115, N4-(benzoxazolin-2-on-5-yl)-N2-(3,4,5-trimethoxyphenyl)-5-fluoropyrimidine-2,4-diamine] |  | > 6.30
Cc1cnc(Nc2cnc(N3CC4CC3CN4CC3CC3)c(F)c2)nc1Nc1ccc2oc(=O)[nH]c2c1 (centres unmarked) [II-54, 5-{2-[6-(5-Cyclopropylmethyl-2,5-diaza-bicyclo[2.2.1]hept-2-yl)-5-fluoro-pyridin-3-ylamino]-5-methyl-pyrimidin-4-ylamino}-3H-benzooxazol-2-one] |  | > 6.30

From patent publication US10005767B2, “Compositions and methods for inhibition of the JAK pathway” (Rigel Pharmaceuticals, Inc., priority 2009, dated 2018)
